Experiments:
[1] = tobramycin treatments; cited from earlier work
[2] = AMPatch in-vivo tobramycin PK monitoring in a rat model (ISF sensor readout and blood LC-MS/MS); design: species or system Sprague-Dawley rats; details: intravenous tobramycin 20 mg/kg, different animals
Source text: More particularly, the developed AMPatch was applied to monitor the PK profile of tobramycin in dermal ISF using a rat model and investigate the drug's ISF-blood correlation. Accordingly, used were three healthy adult Sprague-Dawley rats and the animals were anesthetized during the test (FIG. 4A). An AMPatch was placed at the back of the animal to render continuous ISF monitoring upon intravenous tobramycin injection. […] To investigate the drug's ISF-blood correlation, blood samples were simultaneously collected before and at intermittent time points after drug injection, followed by standard lab analysis (liquid chromatography with tandem mass spectrometry, LC-MS/MS). The acquired PK readouts were interpreted using a two compartment-based pharmacokinetic model, which captures the drug's distribution (e.g., from blood to ISF) and elimination processes (FIG. 4B). The blood-ISF correlation was evaluated by comparing the drug's circulating AUC (AUC_blood) versus the AUC and the maximum concentrations of ISF drug, where the ISF concentrations can be equivalently presented by the measured sensor response (denoting AUC_ISF and R_max, respectively).
An AMPatch according to embodiments was first deployed in a manner to assess its capability of tracking the ISF PK profile in-vivo. […]

For `NC[C@H]1O[C@H](O[C@H]2[C@H](O)[C@@H](O[C@H]3O[C@H](CO)[C@@H](O)[C@H](N)[C@H]3O)[C@H](N)C[C@@H]2N)[C@H](N)C[C@@H]1O` [tobramycin], the “rate of nephrotoxicity incidence” value [1] is listed as 12%, the AUC ([2]; Sprague-Dawley, blood LC-MS/MS, read-out: AUC_blood) is listed as 176 µM·h and the AUC_ISF ([2]; dermal ISF, AMPatch sensor response) is listed as 7.7±5.2 %·h.

— US20250185948A1, “WEARABLE APTAMER MICRONEEDLE PATCH FOR CONTINUOUS MINIMALLY-INVASIVE BIOMONITORING” (THE REGENTS OF THE UNIVERSITY OF CALIFORNIA, priority 2022, published 2025)
